Measured values reported in US8426408B2, “Pyrimidine inhibitors of kinases” (AbbVie Inc., priority 2009, dated 2013).

Legend:
NCI-H1299 cells = assay: Induction of polyploidy in H1299; format: cell-based, Human; settings: NCI-H1299, 48 hours; for EC15: Homo sapiens, read-out: EC15 (concentration of inhibitor necessary to induce polyploidy in 15% of cells)
Procedure, shortened: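 NCI-H1299 cells in RPMI 1640/10% FCS were treated with inhibitor concentrations in duplicate for 48 h at 37 C, then formalin-fixed and Hoechst-stained. Nuclear area was measured by high-content imaging, with polyploid (≥4N) defined as >750 μ^2. EC15 was derived by least-squares fit of log dose-response.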

KDR = KDR (Homo sapiens, UniProt P35968); assay: KDR cellular assay (KDR receptor phosphorylation ELISA); format: cell-based; set-up: expressed in transfected cells; host or cells: 3T3 (embryonic mouse) cells; settings: KDR transfected 3T3 (embryonic mouse) cells, VEGF stimulated; read-out: IC50 inhibition of KDR phosphorylation
Chain of KDR (P35968 20-1356): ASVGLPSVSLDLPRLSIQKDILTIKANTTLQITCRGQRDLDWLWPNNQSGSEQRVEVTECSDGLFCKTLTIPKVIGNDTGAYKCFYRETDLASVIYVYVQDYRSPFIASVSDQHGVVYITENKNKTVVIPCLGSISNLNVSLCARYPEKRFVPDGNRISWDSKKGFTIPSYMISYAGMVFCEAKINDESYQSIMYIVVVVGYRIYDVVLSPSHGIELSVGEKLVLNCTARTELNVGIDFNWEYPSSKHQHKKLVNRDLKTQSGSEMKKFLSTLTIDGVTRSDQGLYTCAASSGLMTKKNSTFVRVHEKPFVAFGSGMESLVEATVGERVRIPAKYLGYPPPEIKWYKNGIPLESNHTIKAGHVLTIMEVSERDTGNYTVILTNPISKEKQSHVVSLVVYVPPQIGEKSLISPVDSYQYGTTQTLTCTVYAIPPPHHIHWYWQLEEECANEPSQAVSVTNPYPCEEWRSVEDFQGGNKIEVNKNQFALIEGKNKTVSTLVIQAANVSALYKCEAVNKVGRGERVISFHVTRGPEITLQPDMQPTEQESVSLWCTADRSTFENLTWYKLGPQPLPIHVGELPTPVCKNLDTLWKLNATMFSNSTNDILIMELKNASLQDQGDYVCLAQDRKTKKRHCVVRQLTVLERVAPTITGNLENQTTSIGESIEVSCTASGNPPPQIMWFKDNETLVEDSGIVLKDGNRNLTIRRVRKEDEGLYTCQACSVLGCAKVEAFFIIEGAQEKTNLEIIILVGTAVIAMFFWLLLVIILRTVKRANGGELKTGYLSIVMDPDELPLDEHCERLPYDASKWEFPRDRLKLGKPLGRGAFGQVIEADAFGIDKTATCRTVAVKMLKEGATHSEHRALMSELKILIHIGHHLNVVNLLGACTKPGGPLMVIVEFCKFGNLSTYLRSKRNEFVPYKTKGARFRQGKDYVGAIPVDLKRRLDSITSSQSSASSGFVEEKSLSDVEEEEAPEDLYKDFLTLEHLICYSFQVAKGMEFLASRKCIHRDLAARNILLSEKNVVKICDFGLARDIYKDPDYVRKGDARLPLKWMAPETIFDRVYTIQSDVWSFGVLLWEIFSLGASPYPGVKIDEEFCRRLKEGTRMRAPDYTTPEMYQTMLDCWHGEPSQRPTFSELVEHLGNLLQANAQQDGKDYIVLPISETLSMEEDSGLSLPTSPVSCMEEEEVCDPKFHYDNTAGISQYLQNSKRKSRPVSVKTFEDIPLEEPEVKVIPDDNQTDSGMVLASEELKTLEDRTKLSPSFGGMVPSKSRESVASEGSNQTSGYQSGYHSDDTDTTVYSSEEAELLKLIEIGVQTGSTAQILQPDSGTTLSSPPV
Procedure, shortened: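 KDR-transfected mouse 3T3 cells treated 20 min at 37° C with half-log compound dilutions, then stimulated 10 min with VEGF (100 ng/ml solution). Lysates captured on anti-KDR plates; phosphorylation by biotin antibody/streptavidin-HRP ELISA at 450 nm. IC50 by non-linear regression.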

IC50 (KDR)	Structure (SMILES)	EC15 (NCI-H1299 cells)	EC15 (concentration of inhibitor necessary to induce polyploidy in 15% of cells) (NCI-H1299 cells)
< 100 nM	NC(=O)[C@@H]1[C@H](Nc2nc(Nc3cnn(C4CCC4)c3)ncc2Cl)[C@H]2C=C[C@@H]1C2 [Example 118, (1S,2S,3R,4R)-3-({5-chloro-2-[(1-cyclobutyl-1H-pyrazol-4-yl)amino]pyrimidin-4-yl}amino)bicyclo[2.2.1]hept-5-ene-2-carboxamide]	< 100 nM	–
< 100 nM	NC(=O)[C@@H]1[C@H](Nc2nc(Nc3cnn(Cc4ccccc4Cl)c3)ncc2Br)[C@H]2C=C[C@@H]1C2 [Example 171, (1S,2S,3R,4R)-3-[(5-bromo-2-{[1-(2-chlorobenzyl)-1H-pyrazol-4-yl]amino}pyrimidin-4-yl)amino]bicyclo[2.2.1]hept-5-ene-2-carboxamide]	< 100 nM	–
< 100 nM	NC(=O)[C@@H]1[C@H](Nc2nc(Nc3cnn(Cc4ccc5ccccc5c4)c3)ncc2Cl)[C@H]2C=C[C@@H]1C2 [Example 179, (1S,2S,3R,4R)-3-[(5-chloro-2-{[1-(2-naphthylmethyl)-1H-pyrazol-4-yl]amino}pyrimidin-4-yl)amino]bicyclo[2.2.1]hept-5-ene-2-carboxamide]	< 100 nM	–
100 to 1000 nM	NC(=O)[C@@H]1[C@H](Nc2nc(Nc3cnn(CCc4cccc(Cl)c4)c3)ncc2Cl)[C@H]2C=C[C@@H]1C2 [Example 158, (1S,2S,3R,4R)-3-{[5-chloro-2-({1-[2-(3-chlorophenyl)ethyl]-1H-pyrazol-4-yl}amino)pyrimidin-4-yl]amino}bicyclo[2.2.1]hept-5-ene-2-carboxamide]	< 100 nM	–
100 to 1000 nM	NC(=O)[C@@H]1[C@H](Nc2nc(Nc3cnn(C[C@H](O)CO)c3)ncc2Cl)[C@H]2C=C[C@@H]1C2 [Example 124, (1S,2S,3R,4R)-3-{[5-chloro-2-({1-[(2S)-2,3-dihydroxypropyl]-1H-pyrazol-4-yl}amino)pyrimidin-4-yl]amino}bicyclo[2.2.1]hept-5-ene-2-carboxamide]	< 100 nM	–
100 to 1000 nM	NC(=O)[C@@H]1[C@H](Nc2nc(Nc3cnn(CC(=O)O)c3)ncc2Cl)[C@H]2C=C[C@@H]1C2 [Example 103, {4-[(4-{[(1R,2R,3S,4S)-3-carbamoylbicyclo[2.2.1]hept-5-ene-2-yl]amino}-5-chloropyrimidin-2-yl)amino]-1H-pyrazol-1-yl}acetic acid]	< 100 nM	–
< 100 nM	NC(=O)[C@@H]1[C@H](Nc2nc(Nc3cnn(C[C@H]4CCCN4)c3)ncc2Cl)[C@H]2C=C[C@@H]1C2 [Example 102, (1S,2S,3R,4R)-3-{[5-chloro-2-({1-[(2R)-pyrrolidin-2-ylmethyl]-1H-pyrazol-4-yl}amino)pyrimidin-4-yl]amino}bicyclo[2.2.1]hept-5-ene-2-carboxamide]	< 100 nM	–
< 100 nM	COCCn1cc(Nc2ncc(Br)c(N[C@H]3[C@@H](C(N)=O)[C@@H]4C=C[C@H]3C4)n2)cn1 [Example 106, (1S,2S,3R,4R)-3-[(5-bromo-2-{[1-(2-methoxyethyl)-1H-pyrazol-4-yl]amino}pyrimidin-4-yl)amino]bicyclo[2.2.1]hept-5-ene-2-carboxamide]	< 100 nM	–
< 100 nM	CN1CCN(CCn2cc(Nc3ncc(Cl)c(N[C@H]4[C@@H](C(N)=O)[C@@H]5C=C[C@H]4C5)n3)cn2)CC1 [Example 91, (1S,2S,3R,4R)-3-{[5-chloro-2-({1-[2-(4-methylpiperazin-1-yl)ethyl]-1H-pyrazol-4-yl}amino)pyrimidin-4-yl]amino}bicyclo[2.2.1]hept-5-ene-2-carboxamide]	< 100 nM	–
100 to 1000 nM	NC(=O)[C@@H]1[C@H](Nc2nc(Nc3cnn(C[C@@H](O)CO)c3)ncc2Cl)[C@H]2C=C[C@@H]1C2 [Example 130, (1S,2S,3R,4R)-3-{[5-chloro-2-({1-[(2R)-2,3-dihydroxypropyl]-1H-pyrazol-4-yl}amino)pyrimidin-4-yl]amino}bicyclo[2.2.1]hept-5-ene-2-carboxamide]	< 100 nM	–

Continued, compound first:

Structure (SMILES)	IC50 (KDR)	EC15 (NCI-H1299 cells)	EC15 (concentration of inhibitor necessary to induce polyploidy in 15% of cells) (NCI-H1299 cells)
NC(=O)[C@H]1[C@@H]2CC[C@@H](C2)[C@H]1Nc1nc(Nc2cnn(CCO)c2)ncc1Cl [Example 93, (1R,2S,3R,4S)-3-[(5-chloro-2-{[1-(2-hydroxyethyl)-1H-pyrazol-4-yl]amino}pyrimidin-4-yl)amino]bicyclo[2.2.1]heptane-2-carboxamide]	100 to 1000 nM	< 100 nM	–
CCn1cc(Nc2ncc(Cl)c(N[C@@H]3[C@@H]4CC[C@@H](C4)[C@@H]3C(N)=O)n2)cn1.CCn1cc(Nc2ncc(Cl)c(N[C@H]3[C@H]4CC[C@H](C4)[C@H]3C(N)=O)n2)cn1 (mixture of isomers) [Example 114, (1R,2R,3S,4S)-3-({5-chloro-2-[(1-ethyl-1H-pyrazol-4-yl)amino]pyrimidin-4-yl}amino)bicyclo[2.2.1]heptane-2-carboxamide and (1S,2S,3R,4R)-3-({5-chloro-2-[(1-ethyl-1H-pyrazol-4-yl)amino]pyrimidin-4-yl}amino)bicyclo[2.2.1]heptane-2-carboxamide]	100 to 1000 nM	–	A (“A” represents an EC15 of less than 0.1 μM)
CC(O)Cn1cc(Nc2ncc(C(F)(F)F)c(NC3C4C=CC(C4)C3C(N)=O)n2)cn1 (mixture of isomers) [Example 19, (1R,2R,3S,4S)-3-{[2-({1-[(2R)-2-hydroxypropyl]-1H-pyrazol-4-yl}amino)-5-(trifluoromethyl)pyrimidin-4-yl]amino}bicyclo[2.2.1]hept-5-ene-2-carboxamide and (1S,2S,3R,4R)-3-{[2-({1-[(2R)-2-hydroxypropyl]-1H-pyrazol-4-yl}amino)-5-(trifluoromethyl)pyrimidin-4-yl]amino}bicyclo[2.2.1]hept-5-ene-2-carboxamide]	< 100 nM	–	A (“A” represents an EC15 of less than 0.1 μM)
Cn1cc(Nc2ncc(C(F)(F)F)c(Nc3ccccc3C3(O)CNC3)n2)cn1 [Example 109, 3-[2-({2-[(1-methyl-1H-pyrazol-4-yl)amino]-5-(trifluoromethyl)pyrimidin-4-yl}amino)phenyl]azetidin-3-ol]	100 to 1000 nM	< 100 nM	–
CCn1cc(Nc2ncc(C(F)(F)F)c(N[C@@H]3[C@H]4CC[C@H](C4)[C@@H]3C(N)=O)n2)cn1.CCn1cc(Nc2ncc(C(F)(F)F)c(N[C@H]3[C@@H]4CC[C@@H](C4)[C@H]3C(N)=O)n2)cn1 (mixture of isomers) [Example 24, (1R,2S,3R,4S)-3-{[2-[(1-ethyl-1H-pyrazol-4-yl)amino]-5-(trifluoromethyl)pyrimidin-4-yl]amino}bicyclo[2.2.1]heptane-2-carboxamide and (1S,2R,3S,4R)-3-{[2-[(1-ethyl-1H-pyrazol-4-yl)amino]-5-(trifluoromethyl)pyrimidin-4-yl]amino}bicyclo[2.2.1]heptane-2-carboxamide]	< 100 nM	–	A (“A” represents an EC15 of less than 0.1 μM)
NC(=O)[C@@H]1[C@H](Nc2nc(Nc3cnn(C[C@H](O)CO)c3)ncc2Br)[C@H]2C=C[C@@H]1C2 [Example 131, (1S,2S,3R,4R)-3-{[5-bromo-2-({1-[(2S)-2,3-dihydroxypropyl]-1H-pyrazol-4-yl}amino)pyrimidin-4-yl]amino}bicyclo[2.2.1]hept-5-ene-2-carboxamide]	100 to 1000 nM	< 100 nM	–
NC(=O)[C@@H]1[C@H](Nc2nc(Nc3cnn([C@@H]4CCOC4)c3)ncc2Cl)[C@H]2C=C[C@@H]1C2 [Example 107, (1S,2S,3R,4R)-3-{[5-chloro-2-({1-[(3R)-tetrahydrofuran-3-yl]-1H-pyrazol-4-yl}amino)pyrimidin-4-yl]amino}bicyclo[2.2.1]hept-5-ene-2-carboxamide]	< 100 nM	< 100 nM	–
